Reference: patent US20230093861A1, “RAPAMYCIN ANALOGS AS MTOR INHIBITORS” (Revolution Medicines, Inc., priority 2017, published 2023)

What was measured:
P-Akt (S473) = test: Cell based AlphaLISA assay, inhibition of P-Akt (S473) (mTORC2 substrate phosphorylation) in MDA-MB-468 cells; details: Homo sapiens, MDA-MB-468, 4 h, AlphaLISA, two to four hours at 37° C., read-out: pIC50 for Inhibition of mTORC1 and mTORC2 Substrate Phosphorylation, p-AKT 1/2/3 -(S473) (converted)
Description: (§1) Cell Based AlphaLISA Assays for Determining IC50 for Inhibition of P-Akt (S473), P-4E-BP1 (T37/46), and P-P70S6K (T389) in MDA-MB-468 Cells
(§2) mTOR Kinase Cellular Assay
(§3) To measure functional activity of mTORC1 and mTORC2 in cells the phosphorylation of 4EBP1 (Thr37/46) and P70S6K (Thr389), and AKT1/2/3 (Ser473) was monitored using AlphaLisa SureFire Ultra Kits (Perkin Elmer). […] Incubations were terminated by removal of the assay buffer and addition of lysis buffer provided with the assay kit. Samples were processed according to the manufacturer's instructions. The Alpha signal from the respective phosphoproteins was measured in duplicate using a microplate reader (Envision, Perkin-Elmer or Spectramax M5, Molecular Devices). Inhibitor concentration response curves were analyzed using normalized IC50 regression curve fitting with control based normalization.

P-4E-BP1 (T37/46) = test: Cell based AlphaLISA assay, inhibition of P-4E-BP1 (T37/46) (mTORC1 substrate phosphorylation) in MDA-MB-468 cells; details: Homo sapiens, MDA-MB-468, 4 h, AlphaLISA, two to four hours at 37° C., read-out: pIC50 for Inhibition of mTORC1 and mTORC2 Substrate Phosphorylation, P-4E-BP1-(T37/46) (converted)
Description: as §1, §2, §3

P-P70S6K (T389) = test: Cell based AlphaLISA assay, inhibition of P-P70S6K (T389) (mTORC1 substrate phosphorylation) in MDA-MB-468 cells; details: Homo sapiens, 4 h, AlphaLISA, two to four hours at 37° C., read-out: pIC50 for Inhibition of mTORC1 and mTORC2 Substrate Phosphorylation, P-P70S6K-(T389) (converted)
Description: as §1, §2, §3

Row | Structure (SMILES) | IC50 (P-Akt (S473)) [nM] | IC50 (P-4E-BP1 (T37/46)) [nM] | IC50 (P-P70S6K (T389)) [nM]
1 | CO[C@H]1C[C@@H]2CC[C@@H](C)[C@@](O)(O2)C(=O)C(=O)N2CCCC[C@H]2C(=O)O[C@H]([C@H](C)C[C@@H]2CC[C@H](n3cc(COC(=O)NCCOCCOCCOCCC(=O)NCCOCCOCCOCCOCCC(=O)NCCCCn4nc(-c5cc6cc(O)ccc6[nH]5)c5c(N)ncnc54)nn3)[C@H](OC)C2)CC(=O)[C@H](C)/C=C(\C)[C@@H](O)[C@@H](OC)C(=O)[C@H](C)C[C@H](C)/C=C/C=C/C=C/1C [Example 126] | 31.6 to 1000 | 3.16 to 31.6 | 1 to 10
2 | CO[C@H]1C[C@@H]2CC[C@@H](C)[C@@](O)(O2)C(=O)C(=O)N2CCCC[C@H]2C(=O)O[C@H]([C@H](C)C[C@@H]2CC[C@H](n3cc(CCCC(=O)NCCOCCOCCOCCC(=O)NCCOCCOCCC(=O)NCCCCn4nc(-c5ccc6oc(N)nc6c5)c5c(N)ncnc54)nn3)[C@H](OC)C2)C/C(=N/OCc2ccccc2)[C@H](C)/C=C(\C)[C@@H](O)[C@@H](OC)C(=O)[C@H](C)C[C@H](C)/C=C/C=C/C=C/1C [Example 173] | > 1000 | > 1000 | 10 to 1000
3 | CO[C@H]1C[C@@H]2CC[C@@H](C)[C@@](O)(O2)C(=O)C(=O)N2CCCC[C@H]2C(=O)O[C@H]([C@H](C)C[C@@H]2CC[C@@H](OCCOCc3cn(CCOCCOCCOCCOCCOCCOCCC(=O)NCCCCn4nc(-c5ccc6oc(N)nc6c5)c5c(N(C)C)ncnc54)nn3)[C@H](OC)C2)CC(=O)[C@H](C)/C=C(\C)[C@@H](O)[C@@H](OC)C(=O)[C@H](C)C[C@H](C)/C=C/C=C/C=C/1C [Example 10] | > 1000 | > 1000 | < 1
4 | CO[C@H]1C[C@@H]2CC[C@@H](C)[C@@](O)(O2)C(=O)C(=O)N2CCCC[C@H]2C(=O)O[C@H]([C@H](C)C[C@@H]2CC[C@@H](OCCCCc3cn(CCOCCOCCOCCOCCOCCOCCOCCOCCOCCOCCOCCOCCOCCOCCOCCOCCOCCOCCOCCOCCOCCOCCOCCOCCC(=O)NCCCCn4nc(-c5ccc6oc(N)nc6c5)c5c(N)ncnc54)nn3)[C@H](OC)C2)CC(=O)[C@H](C)/C=C(\C)[C@@H](O)[C@@H](OC)C(=O)[C@H](C)C[C@H](C)/C=C/C=C/C=C/1C [Example 97] | 3.16 to 31.6 | 3.16 to 31.6 | 1 to 10
5 | CO[C@H]1C[C@@H]2CC[C@@H](C)[C@@](O)(O2)C(=O)C(=O)N2CCCC[C@H]2C(=O)O[C@H]([C@H](C)C[C@@H]2CC[C@@H](OCCCCc3cn(CCOCCOCCOCCOCCOCCOCCOCCOCCC(=O)NCCCCn4nc(-c5cccc(C(=O)NC6=NCCS6)c5)c5c(N)ncnc54)nn3)[C@H](OC)C2)CC(=O)[C@H](C)/C=C(\C)[C@@H](O)[C@@H](OC)C(=O)[C@H](C)C[C@H](C)/C=C/C=C/C=C/1C [Example 40] | 31.6 to 1000 | < 3.16 | < 1
6 | CO/N=C1/C[C@@H]([C@H](C)C[C@@H]2CC[C@H](n3cc(COC(=O)NCCOCCOCCOCCC(=O)NCCOCCOCCC(=O)NCCCCn4nc(-c5cc6cc(O)ccc6[nH]5)c5c(N)ncnc54)nn3)[C@H](OC)C2)OC(=O)[C@@H]2CCCCN2C(=O)C(=O)[C@]2(O)O[C@@H](CC[C@H]2C)C[C@H](OC)/C(C)=C/C=C/C=C/[C@@H](C)C[C@@H](C)C(=O)[C@H](OC)[C@H](O)/C(C)=C/[C@H]1C [Example 152] | > 1000 | > 1000 | 10 to 1000
7 | CCO[C@@H]1C[C@@H]([C@H](C)C[C@@H]2CC[C@@H](O)[C@H](OC)C2)OC(=O)[C@@H]2CCCCN2C(=O)C(=O)[C@]2(O)O[C@@H](CC[C@H]2C)C[C@H](OC)/C(C)=C/C=C/C=C/[C@@H](C)C[C@@H](C)C(=NOCc2cn(CCOCCOCCOCCOCCOCCOCCOCCOCCC(=O)NCCCCn3nc(-c4ccc5oc(N)nc5c4)c4c(N)ncnc43)nn2)[C@H](OC)[C@H](O)/C(C)=C/[C@H]1C [Example 64] | 31.6 to 1000 | 3.16 to 31.6 | < 1
8 | COC(=O)N[C@H]1C[C@@H]2CC[C@@H](C)[C@@](O)(O2)C(=O)C(=O)N2CCCC[C@H]2C(=O)O[C@H]([C@H](C)C[C@@H]2CC[C@@H](OCCCCc3cn(CCOCCOCCOCCOCCOCCOCCOCCOCCC(=O)NCCCCn4nc(-c5cnc6[nH]ccc6c5)c5c(N)ncnc54)nn3)[C@H](OC)C2)CC(=O)[C@H](C)/C=C(\C)[C@@H](O)[C@@H](OC)C(=O)[C@H](C)C[C@H](C)/C=C/C=C/C=C/1C [Example 81] | 31.6 to 1000 | 3.16 to 31.6 | 1 to 10
9 | CO[C@H]1C[C@@H]2CC[C@@H](C)[C@@](O)(O2)C(=O)C(=O)N2CCCC[C@H]2C(=O)O[C@H]([C@H](C)C[C@@H]2CC[C@@H](OCCCCc3cn(CCOCCOCCOCCNC(=O)CCCC(=O)NCCCCn4nc(-c5ccc6oc(N)nc6c5)c5c(N)ncnc54)nn3)[C@H](OC)C2)CC(=O)[C@H](C)/C=C(\C)[C@@H](O)[C@@H](OC)C(=O)[C@H](C)C[C@H](C)/C=C/C=C/C=C/1C [Example 100] | 3.16 to 31.6 | 31.6 to 1000 | < 1
10 | CO[C@H]1C[C@@H]2CC[C@@H](C)[C@@](O)(O2)C(=O)C(=O)N2CCCC[C@H]2C(=O)O[C@H]([C@H](C)C[C@@H]2CC[C@H](n3cc(COC(=O)NCCOCCOCCOCCC(=O)NCCOCCOCCOCCC(=O)NCCCCn4nc(-c5cc6cc(O)ccc6[nH]5)c5c(N)ncnc54)nn3)[C@H](OC)C2)C[C@@H](OC)[C@H](C)/C=C(\C)[C@@H](O)[C@@H](OC)C(=O)[C@H](C)C[C@H](C)/C=C/C=C/C=C/1C [Example 146] | > 1000 | > 1000 | 1 to 10
11 | COc1ccc(-c2ccc3ncc4c(c3c2)n(-c2ccc(N3CCN(C(=O)CCOCCOCCOCCOCCOCCOCCn5cc(CON=C6[C@H](C)C[C@H](C)/C=C/C=C/C=C(\C)[C@@H](OC)C[C@@H]7CC[C@@H](C)[C@@](O)(O7)C(=O)C(=O)N7CCCC[C@H]7C(=O)O[C@H]([C@H](C)C[C@@H]7CC[C@@H](O)[C@H](OC)C7)C[C@@H](O)[C@H](C)/C=C(\C)[C@@H](O)[C@H]6OC)nn5)CC3)c(C(F)(F)F)c2)c(=O)n4C)cn1 [Example 52] | 3.16 to 31.6 | 3.16 to 31.6 | < 1
12 | CO[C@H]1C[C@@H]2CC[C@@H](C)[C@@](O)(O2)C(=O)C(=O)N2CCCC[C@H]2C(=O)O[C@H]([C@H](C)C[C@@H]2CC[C@H](OCCCCc3cn(CCOCCOCCOCCOCCOCCOCCC(=O)NCCCCn4nc(-c5cccc(C(=O)NC6=NCCS6)c5)c5c(N)ncnc54)nn3)[C@H](OC)C2)CC(=O)[C@H](C)/C=C(\C)[C@@H](O)[C@@H](OC)C(=O)[C@H](C)C[C@H](C)/C=C/C=C/C=C/1C (stereo in doubt) [Example 41] | > 1000 | 3.16 to 31.6 | < 1
13 | CO[C@H]1C[C@@H]2CC[C@@H](C)[C@@](O)(O2)C(=O)C(=O)N2CCCC[C@H]2C(=O)O[C@H]([C@H](C)C[C@@H]2CC[C@H](n3cc(CCCC(=O)NCCOCCOCCOCCC(=O)NCCOCCOCCOCCC(=O)NCCCCn4nc(-c5cc6cc(O)ccc6[nH]5)c5c(N)ncnc54)nn3)[C@H](OC)C2)C/C(=N/OC(C)(C)C)[C@H](C)/C=C(\C)[C@@H](O)[C@@H](OC)C(=O)[C@H](C)C[C@H](C)/C=C/C=C/C=C/1C [Example 178] | > 1000 | > 1000 | 10 to 1000
14 | CO[C@H]1C[C@@H]2CC[C@@H](C)[C@@](O)(O2)C(=O)C(=O)N2CCCC[C@H]2C(=O)O[C@H]([C@H](C)C[C@@H]2CC[C@H](n3cc(COC(=O)NCCOCCOCCOCCC(=O)NCCOCCOCCOCCC(=O)NCCCCn4nc(-c5ccc6oc(N)nc6c5)c5c(N)ncnc54)nn3)[C@H](OC)C2)C/C(=N/OC(C)(C)C)[C@H](C)/C=C(\C)[C@@H](O)[C@@H](OC)C(=O)[C@H](C)C[C@H](C)/C=C/C=C/C=C/1C [Example 160] | 31.6 to 1000 | > 1000 | 10 to 1000
15 | CO[C@H]1C[C@@H]2CC[C@@H](C)[C@@](O)(O2)C(=O)C(=O)N2CCCC[C@H]2C(=O)O[C@H]([C@H](C)C[C@@H]2CC[C@H](n3cc(COC(=O)NCCOCCOCCOCCC(=O)NCc4cnc(N5CCN(c6ncc(C(=O)NCCCCn7nc(-c8cc9cc(O)ccc9[nH]8)c8c(N)ncnc87)cn6)CC5)nc4)nn3)[C@H](OC)C2)CC(=O)[C@H](C)/C=C(\C)[C@@H](O)[C@@H](OC)C(=O)[C@H](C)C[C@H](C)/C=C/C=C/C=C/1C [Example 184] | 3.16 to 31.6 | < 3.16 | < 1
16 | CO[C@H]1C[C@@H]2CC[C@@H](C)[C@@](O)(O2)C(=O)C(=O)N2CCCC[C@H]2C(=O)O[C@H]([C@H](C)C[C@@H]2CC[C@H](n3cc(COC(=O)NCCOCCOCCOCCOCCC(=O)NCc4cnc(N5CCN(c6ncc(C(=O)NCCCCn7nc(-c8ccc9oc(N)nc9c8)c8c(N)ncnc87)cn6)CC5)nc4)nn3)[C@H](OC)C2)CC(=O)[C@H](C)/C=C(\C)[C@@H](O)[C@@H](OC)C(=O)[C@H](C)C[C@H](C)/C=C/C=C/C=C/1C [Example 185] | 3.16 to 31.6 | < 3.16 | < 1
